Values joined by “and” are separate entries in the source; they are usually repeats but may differ in a detail not shown here. Equal entries are not always repeated. “Also recorded” adds a separate entry of the source.
Legend:
[1] = tested on: parental HEK293 cells; assay: FLIPR intracellular Ca^++ assay in parental HEK293 cells (no CaR2); type: cell-based
Experimental: (§1) Intracellular Ca^++ was measured using a fluorometric imaging plate reader (FLIPR) [Molecular Devices]. Cells were seeded at a density of 1×10^5/well (96-well plate) or 1×10^4/well (384-well plate) in collagen coated plates and incubated overnight at 36.9° C. with 5% CO2. Medium was aspirated from the plates and replaced with equal volumes of a no wash calcium dye (Molecular Devices) and modified Hank's buffered saline solution [Ca^2+-free, Mg^2+-free] (140 mM NaCl, 5.4 mM KCl, 0.64 mM KH2PO4, 3 mM NaHCO3, 5.5 mM C6H12O6, 20 mM HEPES, 2.5 mM Caprylic acid (or 2.5 mM probenecid)). The plates were incubated for 1 hour at 36.9° C. with 5% CO2. FLIPR was used to measure changes in intracellular calcium as relative fluorescence upon activation by ligand.
(§2) Also, the apical side of cells lining tubules in Henle's loop in kidney and in epithelial cells lining prostate ducts are microenvironments where a higher than standard extracellular Ca^++ can be expected.
(§3) Having shown that high calcium levels activate CaR2, the effects of several agents known to modulate bone metabolism were determined.

[2] = biological target: T1, CaR2 (Homo sapiens, UniProt Q5T6X5, P91S); assay: FLIPR intracellular Ca^++ assay in HEK293 clone expressing CaR2 (HEK-167B12-2.1); type: cell-based; conditions: for FLIPR response / activation of CaR2 by ligand: initial ligand testing, ligand alone; for effect of Pb on activation of CaR2 by combined OC and Ca^++: OC and Ca^++ pre-incubated with / in the presence of Pb
T1 construct: molecular acquisition of the full-length cDNA led to the identification of the six coding exons; expressed in transfected cells
T1 sequence (Q5T6X5 19-926 P91S): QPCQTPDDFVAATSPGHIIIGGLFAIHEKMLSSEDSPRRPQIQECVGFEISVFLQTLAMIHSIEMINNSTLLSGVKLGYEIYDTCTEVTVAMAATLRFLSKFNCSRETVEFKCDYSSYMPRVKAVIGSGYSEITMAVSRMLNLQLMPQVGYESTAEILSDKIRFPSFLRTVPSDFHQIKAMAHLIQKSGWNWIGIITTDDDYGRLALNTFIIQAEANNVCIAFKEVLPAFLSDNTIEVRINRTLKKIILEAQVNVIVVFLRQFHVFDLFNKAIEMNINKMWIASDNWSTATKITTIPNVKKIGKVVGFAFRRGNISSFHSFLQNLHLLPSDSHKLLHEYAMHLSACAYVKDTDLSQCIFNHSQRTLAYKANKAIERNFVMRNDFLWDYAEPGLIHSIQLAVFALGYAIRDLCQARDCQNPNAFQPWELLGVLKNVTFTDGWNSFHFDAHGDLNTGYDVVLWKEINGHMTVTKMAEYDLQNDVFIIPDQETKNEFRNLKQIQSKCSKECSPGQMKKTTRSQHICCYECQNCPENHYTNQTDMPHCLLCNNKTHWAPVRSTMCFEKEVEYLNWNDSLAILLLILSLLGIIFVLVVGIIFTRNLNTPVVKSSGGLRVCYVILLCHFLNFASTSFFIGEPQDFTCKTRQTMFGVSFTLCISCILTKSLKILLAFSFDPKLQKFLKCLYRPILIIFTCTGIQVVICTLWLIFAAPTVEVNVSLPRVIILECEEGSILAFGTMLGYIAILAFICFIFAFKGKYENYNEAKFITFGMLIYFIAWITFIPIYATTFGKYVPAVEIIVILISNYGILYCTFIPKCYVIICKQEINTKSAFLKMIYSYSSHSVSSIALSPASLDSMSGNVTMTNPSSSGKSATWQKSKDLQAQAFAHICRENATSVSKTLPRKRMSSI
Experimental: To facilitate pharmacological experimentation, CaR2 cDNA was cloned into the mammalian expression vector pcDNA 3.1 (+) Neo with or without a COOH-terminal FLAG epitope. The transgene was introduced into the HEK293 cell line and stable transfectants were identified. These clones were analyzed for CaR2 expression by qPCR and Western blotting to identify those clones that were suitable for ligand identification.
Based on the homology to the characterized goldfish odorant receptor 5.24, initial studies investigated the ability of 18 naturally occurring amino acids to trigger changes of intracellular Ca^++ levels in the transfected cells, as measured with a fluorescent imaging plate reader (FLIPR).
as §1

[3] = tested on: Saos-2 osteoblasts; assay: Osteoblast survival and proliferation in high mM Ca^++; type: cell-based
Source text: Saos-2 osteoblasts (ATCC-HTB-85) express CaR2 as determined by Western Blotting.

[4] = tested on: CaR; conditions: CaR in transfected HEK 293 cells; read-out: EC50 for Ca^++ at CaR; cited from earlier work
[5] = tested on: CaR; assay: Activation of CaR in transfected HEK 293 cells; type: cell-based; conditions: HEK293 cells that express the previously characterized CaR
Experimental: as §1, §2, §3

[Ca+2] [Ca^++, calcium]
increase in fluorescence signal by high calcium levels ([1]; parental cell line, >20 mM calcium): not observed | CaR2 activation by Ca^++ ([2]; 10 mM Ca^++ (FIG. 4)): modest activation | CaR2 activation by Ca^++ ([2]; 40 mM Ca^++ (FIG. 4)): robustly activated | EC50 ([2]; HEK293 clone expressing CaR2, FLIPR): 85 mM | calcium level causing marked increase in fluorescence signal (intracellular Ca^++) ([2]; clone expressing CaR2 (FIG. 2)): > 20 mM | FLIPR response / activation of CaR2 by ligand [2]: failed to elicit a positive FLIPR response | growth of Saos-2 cells ([3]; buffer containing 2 mM Ca^++): grew | proliferation and survival of Saos-2 cells ([3]; medium containing 10 mM Ca^++): did not proliferate | proliferation and survival of Saos-2 cells ([3]; medium containing 40 mM Ca^2+): survived and proliferated normally | EC50 [4]: 4.1 mM and 4 mM

NCCCC(=O)O [GABA, reference compound]
FLIPR response / activation of CaR2 by ligand [2]: failed to elicit a positive FLIPR response

OC: vitamin K-dependent bone calcium binding protein, 49 amino acids, synthesized by osteoblasts (YLYQWLGAPVPYPDPLEPRREVCELNPDCDELADHIGFQEAYRRFYGPV; UniProt P02818 52-100, looked up)
effect of OC and Ca^++ ([1]; parental HEK293 cells that do not express CaR2): not observed | synergistic effect of OC and calcium on CaR2 ([2]; OC and calcium added separately, not pre-incubated): not when both ligands are added separately | effect of OC on activation of CaR2 by Ca^++ ([2]; OC pre-incubated with calcium): CaR2 was activated at lower calcium levels and the activation by high mM calcium was potentiated; also recorded: dose-dependent effect; also recorded: activates CaR2 when pre-incubated with 10 mM Ca^++ in a dose-dependent manner; also recorded: increases the sensitivity of CaR2 to Ca^++ | activation of CaR2 by OC ([2]; in the absence of calcium): does not activate CaR2 | effect of OC and Ca^++ [5]: not observed

[Pb+2] [Pb^++, reference compound]
effect of Pb on activation of CaR2 by combined OC and Ca^++ [2]: blocked | effect of Pb on activation of CaR2 by combined OC and Ca^++ ([2]; listed as Pb^2+): reversed

calcitonin [CT]
intracellular Ca^++ in the CaR2 clone ([2]; either ligand (BMP-2 or CT) added alone, absence of calcium): not seen

CN[C@H](CC(=O)O)C(=O)O [NMDA, reference compound]
FLIPR response / activation of CaR2 by ligand [2]: failed to elicit a positive FLIPR response
